Measurements from US5073571A, “Method of inhibiting virus” (priority 1989, dated 1991).

System: uninfected H9 cells
Experiment: Metabolic labeling tests using uninfected H9 cells
Format: cell-based, human
Settings: 0.1 to 100 μM
Protocol: Toxicity Studies. These analyses were conducted for both assay systems. Cell survival was determined by trypan-blue exclusion. The number of unstained cells/mL in the treated cultures was divided by the number of unstained cells/mL in the untreated control cultures and expressed as percent control. Protein synthesis was measured at the end of the treatment periods by metabolic labeling for 4 hrs with L-[4,5^3 H(N)]-leucine (2 μCi/mL media, specific activity =140 Ci/mmol). All cells contained in a given well of a 24 well plate were recovered by scraping, the protein precipitated by TCA (final concentration =10%) and the solution subsequently incubated at 100° C. for 5 min prior to passage over glass fiber filters (Whatman). In the case of the H-9 assay, treated or untreated cells were pulsed labeled at the conclusion of the 10 day incubation. For the MoMLV assay, labeling studies were performed on LZ1 virus producing cells at the conclusion of the 2 day treatment period. An additional control test was performed on NIH 3T3 cells that had never been exposed to virus but which had been incubated with media (± analog) for two days. DNA synthesis was assessed on day 10 of the H9 assay. Cells were labeled for 12 h with [5'-^3 H]thymidine (0.5 μCi/mL, specific activity =2 Ci/mmol). All the cells in a well were harvested by scraping, their nucleic acid precipitated with TCA (final concentration =10%), and then collected on glass fiber filters prior to counting.
The cellular toxicity of 13-oxamyristate was analyzed using three independent assays of cell viability. First, viable cell number was determined at the conclusion of the 10 day treatment period using trypan blue exclusion. The percentage of living cells in untreated, HIV-1 infected cultures was reduced by 50% compared to that of untreated, uninfected cells (FIG. 1D). This reflects the cytopathic effects encountered with this strain of HIV-1 [Ratner et al., Nature 313, 277-284 (1985)]. […] To further investigate this hypothesis, the effects of increasing concentrations of the analog on DNA and protein synthesis were determined.

COCCCCCCCCCCCC(=O)O [13-oxamyristate, 12-(Methoxy)dodecanoic acid]
no significant effects: DNA synthetic rates | growth rates | protein synthetic rates
